Like-named read-outs stand apart in the source and are kept apart here. Each block holds one molecule with its values, some of them ahead of it.
Experiments:
[1] = system: HER-2 receptor (Hsp90 client) in MCF-7 cells; experiment: HER-2 degradation assay (MCF-7 cells, 16 h, phycoerythrin-labeled antibody and flow cytometry); assay type: cell-based, human
[2] = Solubility in simulated gastric fluid, simulated intestinal fluid and serum; assay type: physicochemical; conditions: for Serum (PH 7.4): solubility in serum; for Gastric (PH 2.0): solubility in simulated gastric fluid; for Intestinal (PH 6.5): solubility in simulated intestinal fluid
[3] = system: N87 xenograft model of human stomach cancer; conditions: for tumor growth inhibition: N87
[4] = Mouse pharmacokinetics after oral administration at 100 mg/kg
[5] = mouse, in vivo, po, 100 mg/kg
[6] = in vivo; conditions: mouse, po, 100 mg/kg
[7] = system: MCF-7 breast cancer cells; experiment: MTS cell growth inhibition assay; assay type: cell-based, human; conditions: MCF-7 cells, 5 days; SEM 9-21% of the mean
[8] = system: MCF-7 xenograft tumors; conditions: cited from earlier work
[9] = Water solubility
[10] = system: Hsp90 clients in N87 stomach cancer xenograft tumors; experiment: Pharmacodynamic effect in N87 xenograft model; assay type: in vivo, mice
Method: The pharmacodynamic effect of amine 126 was examined in a N87 xenograft model (FIG. 1b), N87 being a stomach cancer cell line expressing high HER-2 levels. Mice were administered 126.H3PO4 orally at two different regimens (2×100 or 2×200 mg/kg/day) for three days, and were sacrificed 24 h after the last dosing.

[11] = Pharmacokinetics in Balb/C mice (IV 10 mg/kg, PO 100 mg/kg)
[12] = oral 2×100 mg/kg/day for three days

IC50 [7]: 1.2 µM
SMILES: C#CCCCn1c(Cc2cc(OC)c(OC)c(OC)c2Cl)nc2c(N)nc(F)nc21 [PU24FCl]
tumor growth ([8]; intraperitoneally 200 mg/kg): significantly repressed tumor growth
pharmacodynamic response in tumors ([8]; intraperitoneally 100-300 mg/kg, DMSO/EtOH/phosphate-buffered saline 1:1:1): down-regulation of HER-2 and Raf-1
aqueous solubility (in words) [9]: too insoluble to be effectively formulated and delivered orally

IC50 ([1]; Homo sapiens, MCF7, MCF-7 cells, 16 h, average of at least three observations, read-out: HER-2 IC50): 20000 nM
melting point: 138 to 139 °C
SMILES: CCCCn1c(Cc2cc(OC)ccc2Cl)nc2c(N)ncnc21 [Compound 311, 9-Butyl-8-(2-chloro-5-methoxy-benzyl)-9H-purin-6-ylamine]

The remaining lines, values behind:

SMILES: Nc1ncnc2c1nc(Sc1nc3cccc(Cl)c3s1)n2CCNC1CC1 [Compound 264]
IC50 ([1]; 9-N-alkyl position SAR, head prints no unit, nM, read-out: HER-2): 110 nM
Serum (PH 7.4) [2]: 59 µg/mL
Gastric (PH 2.0) [2]: 245 µg/mL
Intestinal (PH 6.5) [2]: 21 µg/mL
tumor growth inhibition ([3]; oral 200 mg/kg 5 days/week, day 39, vs control group): 56%
oral bioavailability (in words) [4]: orally bioavailable
C-max ([4]; PO 100 mg/kg): 4513 ng/mL
Mouse PK PO AUC at 100 mg/kg PO ([4]; PO 100 mg/kg): 430511 ng·min/mL
Mouse PK PO Cmax at 100 mg/kg ([4]; PO 100 mg/kg): 4.479 µg/mL
time of C-max after dosing ([4]; PO 100 mg/kg): 30 min
half life ([4]; PO 100 mg/kg, estimated): ~1.5 h

SMILES: CC(=O)OCCCn1c(Sc2nc3cccc(Cl)c3s2)nc2c(N)ncnc21 [Compound 242]
IC50 ([1]; Homo sapiens, MCF7, read-out: HER-2): 90 nM
Serum (PH 7.4) [2]: 9 µg/mL
Gastric (PH 2.0) [2]: 220 µg/mL
Intestinal (PH 6.5) [2]: 16 µg/mL
plasma concentrations (in words) [5]: significantly lower than 264
AUC [6]: 1.04 µg·h/mL

SMILES: COc1ccc(I)c(Sc2nc3c(N)ncnc3n2CCCNC(C)C)c1.O=P(O)(O)O [Compound 126, 8-(2-Iodo-5-methoxy-phenylsulfanyl)-9-(3-isopropylamino-propyl)-9H-purin-6-ylamine H3PO4 salt]
IC50 ([1]; MCF-7 cells, 16 h, SEM 6-11% of the mean, read-out: HER-2 IC50): 180 nM
IC50 [7]: 0.6 µM
degradation of HER-2, pHER-2, pRaf in tumor [10, 12]: little or no degradation
degrading Akt, pAkt, Raf-1, pMEK, cdk6, pRb in tumor [10, 12]: still effective
levels of HER-2 and pHER-2 in tumor ([10]; oral 2×200 mg/kg/day for three days): decreased only partially
degradation of Akt, pAkt, Raf-1, pRaf, cdk6, pRb in tumor ([10]; oral 2×200 mg/kg/day for three days, 24 h after last dosing): to levels comparable to those obtained with 17-AAG
tumor growth inhibition ([3]; oral 200 mg/kg/day, once daily, 5 days/week): Tumor growth inhibition was observed
mortality and weight loss ([3]; oral 200 mg/kg/day, once daily, 5 days/week, mice): neither mortality nor weight loss was observed
IV Parameters T1/2 ([11]; IV 10 mg/kg, H3PO4 salts): 4.2 h
IV Parameters VSS ([11]; IV 10 mg/kg, H3PO4 salts): 22 L/kg
IV Parameters Cl ([11]; IV 10 mg/kg, H3PO4 salts in phosphatidylcholine/water dispersion): 3.72 L/h/kg
PO Parameters T1/2 ([11]; PO 100 mg/kg, H3PO4 salts): 1.5 h
PO Parameters Tmax ([11]; PO 100 mg/kg, H3PO4 salts): 0.5 h
PO Parameters Cmax ([11]; PO 100 mg/kg, H3PO4 salts, plasma): 4.7 µg/mL
PO Parameters AUC ([11]; PO 100 mg/kg, over 4 h, H3PO4 salts): 450 µg·min/mL

Reference: patent US20070129334A1, “Orally Active Purine-Based Inhibitors of Heat Shock Protein 90” (CONFORMA THERAPEUTICS CORPORATION, priority 2001, published 2007)
